Earlier results as cited in patent publication US20200037638A1, “FORMULATIONS” (Molecular Infusions, LLC., priority 2017, published 2020).

## CCCCCc1cc(O)c2c(c1)OC(C)(C)[C@@H]1CCC(C)=C[C@@H]21 [dronabinol, Δ9-tetrahydrocannabinol]
After administration
  Duration of appetite stimulant effect: ≥ 24 h
After oral administration
  Duration of action for psychoactive effects: 4 to 6 h
  Onset of action: 0.5 to 1 h
  Peak effect (time): 2 to 4 h
After single oral doses
  Absorbed: 90 to 95%
oral, first pass hepatic metabolism and high lipid solubility
  Administered dose reaching the systemic circulation: 10 to 20%
